# In patent US20230278981A1, “DICHLOROPHENOL HSD17B13 INHIBITORS AND USES THEREOF” (INIPHARM, INC., priority 2020, published 2023):
# Target: HSD17B13 (Homo sapiens (Human), UniProt Q7Z5P4)
# Test: LC/MS estrone detection assay: conversion of estradiol to estrone by HSD17B13
# Type: biochemical
# Conditions: 4 μM estradiol, 6 mM NAD+, 30 nM HSD17B13 enzyme (E. coli expressed His-tagged), 2 hours at 26.5° C.
# Experimental: The liquid chromatography/mass spectrometry (LC/MS) estrone detection assay monitors the conversion of estradiol to estrone by HSD17B13. This assay was undertaken in a 96wp format (Eppendorf deep well Plate 96/500) in an 80 μl reaction volume containing: 4 μM of Estradiol (E2; Cayman; Ser. No. 10/006,315), 6 mM NAD+(Sigma; #N0623) and 30 nM HSD17B13 enzyme (in-house; E. coli expressed His-tagged, purified, soluble protein) in a reaction containing […] potassium phosphate buffer pH 7.4, with 0.5% vehicle (DMSO). Reactions were incubated for 2 hours at 26.5° C., and estradiol (E2) conversion to estrone (E1) was quantitated by LC-MS/MS based analyte detection for both E2 and E1 using LCMS grade reagents.
# Reactions were terminated by the addition of two volumes of acetonitrile (MeCN; LCMS grade; CAS #75/05/8) containing deuterated (D4)-E1 used as internal standard (Clear Synth; #CS-T-54273; 500 ng/mL final concentration). Samples were applied to pre-prepared Bond Elut-C18 extraction cartridges (3 mL; Agilent; Ser. No. 12/102,028), washed and eluted in MeCN. Eluates were dried under nitrogen and re-suspended in 60% methanol (LCMS grade methanol; CAS #67/56/1) before submission for analysis. Aqueous linearity for E2 and E1 were included for quantification.
# Analysis of samples was undertaken on a XBridge BEH C18 column (Waters; #186003033) using 0.1% Diethyl Amine in MeCN (mobile phase A; DEA CAS #109-89-7) and 0.1% Diethyl Amine in milli-Q water (mobile phase B) in a 3 min gradient allowing 25% B. Analytes were detected in negative mode using MRM analysis, with E2 having a RT of 1.85 min and E1 having a RT of 2 min. Activity of the enzyme, in the absence of NAD^+, was used to evaluate specificity of conversion. Enzyme activity in the presence of test samples was expressed as a percentage of the uninhibited enzyme activity, and plotted versus inhibitor concentration. Non-linear regression was performed using a four-parameter logistic model and GraphPad Prism software (GraphPad Software, La Jolla, Calif.). All assessments were undertaken in duplicate evaluations and pooled during extraction process and subsequently injected as duplicates for LC-MS/MS analysis.
# HSD17B13, sequence (Q7Z5P4 20-300): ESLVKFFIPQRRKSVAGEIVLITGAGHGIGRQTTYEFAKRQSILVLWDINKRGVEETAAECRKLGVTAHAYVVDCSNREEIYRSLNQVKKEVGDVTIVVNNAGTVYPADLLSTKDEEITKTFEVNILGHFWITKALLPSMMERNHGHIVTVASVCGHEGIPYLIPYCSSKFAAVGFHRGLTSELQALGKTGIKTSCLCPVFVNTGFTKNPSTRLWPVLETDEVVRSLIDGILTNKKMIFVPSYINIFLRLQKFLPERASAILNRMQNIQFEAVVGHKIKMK
row,SMILES,IC50 [nM]
1,"O=C(Nc1cccc2ncn(Cc3ccc(N4CCS(=O)(=O)CC4)cc3)c(=O)c12)c1cc(Cl)c(O)c(Cl)c1 [Example 63, 3,5-dichloro-N-(3-(4-(1,1-dioxidothiomorpholino)benzyl)-4-oxo-3,4-dihydroquinazolin-5-yl)-4-hydroxybenzamide]",100 to 500
2,"Cc1nc2cccc(NC(=O)c3cc(Cl)c(O)c(Cl)c3)c2c(=O)n1Cc1ccccc1OC(F)(F)F [Example 64, 3,5-dichloro-4-hydroxy-N-(2-methyl-4-oxo-3-(2-(trifluoromethoxy)benzyl)-3,4-dihydroquinazolin-5-yl)benzamide]",≤ 100
3,"O=C(Nc1cccc2ncn(Cc3cccc(OC(F)(F)F)c3)c(=O)c12)c1ccc(Cl)c(O)c1Cl [Example 65, 2,4-dichloro-3-hydroxy-N-(4-oxo-3-(3-(trifluoromethoxy)benzyl)-3,4-dihydroquinazolin-5-yl)benzamide]",1000 to 10000
4,"N#Cc1ccccc1Cn1cnc2cccc(NC(=O)c3cc(Cl)c(O)c(Cl)n3)c2c1=O [Example 66, 4,6-dichloro-N-(3-(2-cyanobenzyl)-4-oxo-3,4-dihydroquinazolin-5-yl)-5-hydroxypicolinamide]",100 to 500
5,"O=C(Nc1cccc2ncn(Cc3n[nH]c4ccccc34)c(=O)c12)c1cc(Cl)c(O)c(Cl)c1 [Example 67, N-(3-((1H-indazol-3-yl)methyl)-4-oxo-3,4-dihydroquinazolin-5-yl)-3,5-dichloro-4-hydroxybenzamide]",≤ 100
6,"N#Cc1cc(C(=O)Nc2cccc3ncn(Cc4cccc(C(F)(F)F)c4)c(=O)c23)cc(Cl)c1O [Example 68, 3-chloro-5-cyano-4-hydroxy-N-(4-oxo-3-(3-(trifluoromethyl)benzyl)-3,4-dihydroquinazolin-5-yl)benzamide]",100 to 500
7,"O=C(Nc1cccnc1C(=O)NCc1ccccc1OC(F)(F)F)c1cc(Cl)c(O)c(Cl)c1 [Example 69, 3-(3,5-dichloro-4-hydroxybenzamido)-N-(2-(trifluoromethoxy)benzyl) picolinamide]",100 to 500
8,"O=C(Nc1cccc2nc(C(F)(F)F)n(Cc3ccccc3OC(F)(F)F)c(=O)c12)c1cc(Cl)c(O)c(Cl)c1 [Example 70, 3,5-dichloro-4-hydroxy-N-(4-oxo-3-(2-(trifluoromethoxy)benzyl)-2-(trifluoromethyl)-3,4-dihydroquinazolin-5-yl)benzamide]",100 to 500
9,"CC(C)(C)CCNC(=O)c1ccccc1NC(=O)c1cc(Cl)c(O)c(Cl)c1 [Example 71, 3,5-dichloro-N-(2-((3,3-dimethylbutyl)carbamoyl)phenyl)-4-hydroxybenzamide]",100 to 500
10,"O=C(Nc1cccc2ncn(C3(c4ccccc4F)CC3)c(=O)c12)c1cc(Cl)c(O)c(Cl)n1 [Example 72, 4,6-dichloro-N-(3-(1-(2-fluorophenyl)cyclopropyl)-4-oxo-3,4-dihydroquinazolin-5-yl)-5-hydroxypicolinamide]",100 to 500
11,"O=C(Nc1cnccc1C(=O)NCc1ccccc1OC(F)(F)F)c1cc(Cl)c(O)c(Cl)c1 [Example 73, 3-(3,5-dichloro-4-hydroxybenzamido)-N-(2-(trifluoromethoxy)benzyl) isonicotinamide]",100 to 500
12,"CC(c1ccccc1OC(F)(F)F)n1cnc2cccc(NC(=O)c3cc(Cl)c(O)c(Cl)c3)c2c1=O (centres unmarked) [Example 74, 3,5-dichloro-4-hydroxy-N-(4-oxo-3-(1-(2-(trifluoromethoxy)phenyl)ethyl)-3,4-dihydroquinazolin-5-yl)benzamide]",100 to 500
13,"O=C(Nc1cccc2ncn(Cc3ncccc3C(F)(F)F)c(=O)c12)c1cc(Cl)c(O)c(Cl)c1 [Example 75, 3,5-dichloro-4-hydroxy-N-(4-oxo-3-((3-(trifluoromethyl)pyridin-2-yl)methyl)-3,4-dihydroquinazolin-5-yl)benzamide]",≤ 100
14,"O=C(Nc1cccc2ncn(Cc3ccn(-c4ccccc4F)n3)c(=O)c12)c1cc(Cl)c(O)c(Cl)c1 [Example 76, 3,5-dichloro-N-(3-((1-(2-fluorophenyl)-1H-pyrazol-3-yl)methyl)-4-oxo-3,4-dihydroquinazolin-5-yl)-4-hydroxybenzamide]",≤ 100
15,"O=C(Nc1cccc2ncn(Cc3ccn(-c4ccccc4)n3)c(=O)c12)c1cc(Cl)c(O)c(Cl)c1 [Example 77, 3,5-dichloro-4-hydroxy-N-(4-oxo-3-((1-phenyl-1H-pyrazol-3-yl)methyl)-3,4-dihydroquinazolin-5-yl)benzamide]",100 to 500
16,"O=C(Nc1cccc2ncn(C(c3ccccc3)c3ccccc3)c(=O)c12)c1cc(Cl)c(O)c(Cl)c1 [Example 78, N-(3-benzhydryl-4-oxo-3,4-dihydroquinazolin-5-yl)-3,5-dichloro-4-hydroxybenzamide]",≤ 100
17,"CS(=O)(=O)c1ccccc1Cn1cnc2cccc(NC(=O)c3cc(Cl)c(O)c(Cl)n3)c2c1=O [Example 79, 4,6-dichloro-5-hydroxy-N-(3-(2-(methylsulfonyl)benzyl)-4-oxo-3,4-dihydroquinazolin-5-yl)picolinamide]",500 to 1000
18,"O=C(Nc1cccc2ncn(Cc3cccnc3)c(=O)c12)c1cc(Cl)c(O)c(Cl)c1 [Example 80, 3,5-dichloro-4-hydroxy-N-(4-oxo-3-(pyridin-3-ylmethyl)-3,4-dihydroquinazolin-5-yl)benzamide]",500 to 1000
19,"O=C(Nc1ccc(Cl)c2ncn(Cc3ccccc3OC(F)(F)F)c(=O)c12)c1cc(Cl)c(O)c(Cl)c1 [Example 81, 3,5-dichloro-N-(8-chloro-4-oxo-3-(2-(trifluoromethoxy)benzyl)-3,4-dihydroquinazolin-5-yl)-4-hydroxybenzamide]",≤ 100
20,"O=C(Nc1cccc2ncn(Cc3cccnc3C(F)(F)F)c(=O)c12)c1cc(Cl)c(O)c(Cl)c1 [Example 82, 3,5-dichloro-4-hydroxy-N-(4-oxo-3-((2-(trifluoromethyl)pyridin-3-yl)methyl)-3,4-dihydroquinazolin-5-yl)benzamide]",≤ 100
21,"O=C(Nc1cccc2ncn(Cc3ccccc3N3CCS(=O)(=O)CC3)c(=O)c12)c1cc(Cl)c(O)c(Cl)c1 [Example 83, 3,5-dichloro-N-(3-(2-(1,1-dioxidothiomorpholino)benzyl)-4-oxo-3,4-dihydroquinazolin-5-yl)-4-hydroxybenzamide]",1000 to 10000
22,"O=C(Nc1cccc2ncn(Cc3ccccc3N3CCOCC3)c(=O)c12)c1cc(Cl)c(O)c(Cl)c1 [Example 84, 3,5-dichloro-4-hydroxy-N-(3-(2-morpholinobenzyl)-4-oxo-3,4-dihydroquinazolin-5-yl)benzamide]",≤ 100
23,"CN(C)CCOc1ccc(NC(=O)c2cc(Cl)c(O)c(Cl)c2)c(C(=O)NCc2ccccc2OC(F)(F)F)c1 [Example 85, 3,5-dichloro-N-(4-(2-(dimethylamino)ethoxy)-2-((2-(trifluoromethoxy)benzyl)carbamoyl)phenyl)-4-hydroxybenzamide]",> 10000
24,"O=C(Nc1ccc(OCCO)cc1C(=O)NCc1ccccc1OC(F)(F)F)c1cc(Cl)c(O)c(Cl)c1 [Example 86, 3,5-dichloro-4-hydroxy-N-(4-(2-hydroxyethoxy)-2-((2-(trifluoromethoxy)benzyl)carbamoyl)phenyl)benzamide]",100 to 500
25,"O=C(Nc1cccc2ncn(Cc3cccnc3OC(F)(F)F)c(=O)c12)c1cc(Cl)c(O)c(Cl)c1 [Example 87, 3,5-dichloro-4-hydroxy-N-(4-oxo-3-((2-(trifluoromethoxy)pyridin-3-yl)methyl)-3,4-dihydroquinazolin-5-yl)benzamide]",100 to 500
26,"Cc1ccc(NC(=O)c2cc(Cl)c(O)c(Cl)c2)c2c(=O)n(Cc3ccccc3OC(F)(F)F)cnc12 [Example 88, 3,5-dichloro-4-hydroxy-N-(8-methyl-4-oxo-3-(2-(trifluoromethoxy)benzyl)-3,4-dihydroquinazolin-5-yl)benzamide]",≤ 100
27,"Cc1ccc(NC(=O)c2cc(Cl)c(O)c(Cl)c2)c2c(=O)n(Cc3ccccc3OC(F)(F)F)c(C)nc12 [Example 89, 3,5-dichloro-N-(2,8-dimethyl-4-oxo-3-(2-(trifluoromethoxy)benzyl)-3,4-dihydroquinazolin-5-yl)-4-hydroxybenzamide]",≤ 100
28,"O=C(Nc1ccc(Cl)c2ncn(Cc3ccccc3OC(F)(F)F)c(=O)c12)c1cc(Cl)c(O)c(Cl)n1 [Example 90, 4,6-dichloro-N-(8-chloro-4-oxo-3-(2-(trifluoromethoxy)benzyl)-3,4-dihydroquinazolin-5-yl)-5-hydroxypicolinamide]",100 to 500
29,"Cc1ccc(NC(=O)c2cc(Cl)c(O)c(Cl)n2)c2c(=O)n(Cc3ccccc3OC(F)(F)F)cnc12 [Example 91, 4,6-dichloro-5-hydroxy-N-(8-methyl-4-oxo-3-(2-(trifluoromethoxy)benzyl)-3,4-dihydroquinazolin-5-yl)picolinamide]",100 to 500
